Laboratory results taken from ChEMBL document CHEMBL5393457, “Combined inhibition of amino acid transporters for inhibiting human plasmacytoid dendritic cell activity during autoimmunity” (2022).
Each block holds one compound with its values, some of them ahead of it. The source made the active and inactive calls. No cut-off for these calls is given here.

What was measured:
[1] = biological target: T1, Janus Kinase (JAK) (Homo sapiens) (UniProt P52333+P23458+O60674+P29597); assay: Inhibition of JAK in IL-3 and CpG-A-stimulated human plasmacytoid dendritic cells at 0.2 to 20 uM assessed as decrease in IFN-alpha production; type: cell-based; details: Plasmacytoid dendritic cell, dose 0.2-20 µM
[2] = biological target: T1, Janus Kinase (JAK) (Homo sapiens); assay: Inhibition of JAK in IL-3 and CpG-A-stimulated human plasmacytoid dendritic cells at 0.2 to 20 uM assessed as decrease in TNF production; type: cell-based; details: Plasmacytoid dendritic cell, dose 0.2-20 µM
[3] = biological target: T2, Cystine/glutamate transporter (Homo sapiens) (UniProt Q9UPY5); assay: Inhibition of XCT in IL-3 and CpG-A-stimulated human plasmacytoid dendritic cells at 100 uM assessed as decrease in TNF production in presence of 1 to 2 uM JPH203; type: cell-based; details: Plasmacytoid dendritic cell
T2 sequence (whole entry): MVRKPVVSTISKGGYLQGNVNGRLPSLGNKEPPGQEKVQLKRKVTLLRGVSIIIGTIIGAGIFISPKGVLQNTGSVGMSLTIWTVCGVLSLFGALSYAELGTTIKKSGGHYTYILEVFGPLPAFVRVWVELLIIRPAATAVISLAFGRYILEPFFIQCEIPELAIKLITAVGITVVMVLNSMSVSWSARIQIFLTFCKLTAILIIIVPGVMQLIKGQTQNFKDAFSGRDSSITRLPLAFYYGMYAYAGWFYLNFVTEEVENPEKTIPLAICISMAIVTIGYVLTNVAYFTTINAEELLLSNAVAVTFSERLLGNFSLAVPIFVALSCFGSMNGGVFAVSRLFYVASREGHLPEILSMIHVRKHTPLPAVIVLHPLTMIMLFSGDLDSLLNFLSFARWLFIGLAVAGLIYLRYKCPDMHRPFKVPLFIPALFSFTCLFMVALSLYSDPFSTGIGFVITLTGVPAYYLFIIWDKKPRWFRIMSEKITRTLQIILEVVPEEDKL

[4] = biological target: T2, Cystine/glutamate transporter (Homo sapiens); assay: Inhibition of XCT in IL-3 and CpG-A-stimulated human plasmacytoid dendritic cells at 100 uM assessed as decrease in IFN-alpha production in presence of 10 to 50 nM IQDMA; type: cell-based; details: Plasmacytoid dendritic cell
[5] = biological target: T2, Cystine/glutamate transporter (Homo sapiens); assay: Inhibition of XCT in IL-3 CpG-A-activated human plasma at 200 uM assessed as decrease in pDC activation
[6] = biological target: T2, Cystine/glutamate transporter (Homo sapiens); assay: Inhibition of XCT in IL-3 and CpG-A-stimulated human plasmacytoid dendritic cells at 100 uM assessed as decrease in IFN-alpha production in presence of 0.2 to 5 ug/ml IGN523; type: cell-based; details: Plasmacytoid dendritic cell
[7] = biological target: T2, Cystine/glutamate transporter (Homo sapiens); assay: Inhibition of XCT in CpG-A-activated human plasmacytoid dendritic cells at 200 uM assessed as decrease in kynurenine uptake; type: cell-based; details: Plasmacytoid dendritic cell
[8] = biological target: T2, Cystine/glutamate transporter (Homo sapiens); assay: Inhibition of XCT in IL-3 and CpG-A-stimulated human plasmacytoid dendritic cells assessed as decrease in TNF production in presence of mavrilimumab; type: cell-based; details: Plasmacytoid dendritic cell
[9] = biological target: T2, Cystine/glutamate transporter (Homo sapiens); assay: Inhibition of XCT in CpG-A-activated human plasmacytoid dendritic cells at 200 uM assessed as decrease in MYO1E expression; type: cell-based; details: Plasmacytoid dendritic cell
[10] = biological target: T2, Cystine/glutamate transporter (Homo sapiens); assay: Inhibition of XCT in IL-3 and CpG-A-stimulated human plasmacytoid dendritic cells at 100 uM assessed as decrease in TNF production in presence of 0.2 to 5 ug/ml IGN523; type: cell-based; details: Plasmacytoid dendritic cell
[11] = biological target: Tyrosine-protein kinase JAK2 (Homo sapiens) (UniProt O60674); assay: Inhibition of JAK2 in CpG-A-activated human plasmacytoid dendritic cells at 100 uM assessed as decrease in TNF production in presence of 25 to 100 uM baricitinib; type: cell-based; details: Plasmacytoid dendritic cell
[12] = biological target: T2, Cystine/glutamate transporter (Homo sapiens); assay: Inhibition of XCT in IL-3 and CpG-A-stimulated human plasmacytoid dendritic cells assessed as decrease in IFN-alpha production in presence of mavrilimumab; type: cell-based; details: Plasmacytoid dendritic cell
[13] = biological target: T2, Cystine/glutamate transporter (Homo sapiens); assay: Inhibition of XCT in CpG-A-activated human plasmacytoid dendritic cells at 200 uM assessed as decrease in TNF production; type: cell-based; details: Plasmacytoid dendritic cell
[14] = biological target: T2, Cystine/glutamate transporter (Homo sapiens); assay: Inhibition of XCT in IL-3 and CpG-A-stimulated human plasmacytoid dendritic cells at 100 uM assessed as decrease in IFN-alpha production in presence of 1 to 2 uM JPH203; type: cell-based; details: Plasmacytoid dendritic cell
[15] = biological target: T2, Cystine/glutamate transporter (Homo sapiens); assay: Inhibition of XCT in IL-3 and CpG-A-stimulated human plasmacytoid dendritic cells at 100 uM assessed as decrease in TNF production in presence of 10 to 50 nM IQDMA; type: cell-based; details: Plasmacytoid dendritic cell
[16] = biological target: T2, Cystine/glutamate transporter (Homo sapiens); assay: Inhibition of XCT in CpG-A-activated human plasmacytoid dendritic cells at 100 uM assessed as decrease in IFN-alpha production in presence of 25 to 100 uM baricitinib; type: cell-based; details: Plasmacytoid dendritic cell
[17] = biological target: T2, Cystine/glutamate transporter (Homo sapiens); assay: Inhibition of XCT in CpG-A-activated human plasmacytoid dendritic cells at 200 uM assessed as decrease in IFN-alpha production; type: cell-based; details: Plasmacytoid dendritic cell
[18] = biological target: T2, Cystine/glutamate transporter (Homo sapiens); assay: Inhibition of XCT in IL-3 and CpG-A-stimulated human plasmacytoid dendritic cells at 100 uM assessed as decrease in IFN-alpha production in presence of 1 to 2 uM AC-4-130; type: cell-based; details: Plasmacytoid dendritic cell
[19] = biological target: T2, Cystine/glutamate transporter (Homo sapiens); assay: Inhibition of XCT in IL-3 CpG-A-activated human plasma at 100 uM assessed as decrease in pDC activation in presence of 0.1 uM baricitinib
[20] = biological target: T2, Cystine/glutamate transporter (Homo sapiens); assay: Inhibition of XCT in CpG-A-activated human plasmacytoid dendritic cells at 200 uM assessed as decrease in ENPP2 expression; type: cell-based; details: Plasmacytoid dendritic cell
[21] = biological target: T2, Cystine/glutamate transporter (Homo sapiens); assay: Inhibition of XCT in IL-3 and CpG-A-stimulated human plasmacytoid dendritic cells at 100 uM assessed as decrease in TNF production in presence of 1 to 2 uM pimozide; type: cell-based; details: Plasmacytoid dendritic cell
[22] = biological target: T2, Cystine/glutamate transporter (Homo sapiens); assay: Inhibition of XCT in IL-3 and CpG-A-stimulated human plasmacytoid dendritic cells at 100 uM assessed as decrease in TNF production in presence of 1 to 2 uM AC-4-130; type: cell-based; details: Plasmacytoid dendritic cell
[23] = biological target: T2, Cystine/glutamate transporter (Homo sapiens); assay: Inhibition of XCT in CpG-A-activated human plasmacytoid dendritic cells at 200 uM assessed as decrease in S6 phosphorylation; type: cell-based; details: Plasmacytoid dendritic cell
[24] = biological target: T2, Cystine/glutamate transporter (Homo sapiens); assay: Inhibition of XCT in IL-3 and CpG-A-stimulated human plasmacytoid dendritic cells at 100 uM assessed as decrease in IFN-alpha production in presence of 1 to 2 uM pimozide; type: cell-based; details: Plasmacytoid dendritic cell
[25] = biological target: Large neutral amino acids transporter small subunit 1 (Homo sapiens) (UniProt Q01650); assay: Inhibition of SLC7A5 in CpG-A-stimulated human plasmacytoid dendritic cells at 5 to 10 uM assessed as decrease in TNF production; type: cell-based; details: Plasmacytoid dendritic cell, dose 5-10 µM
[26] = biological target: Large neutral amino acids transporter small subunit 1 (Homo sapiens) (UniProt Q01650); assay: Inhibition of SLC7A5 in CpG-A-stimulated human plasmacytoid dendritic cells at 5 to 10 uM assessed as decrease in kynurenine transport; type: cell-based; details: Plasmacytoid dendritic cell, dose 5-10 µM
[27] = biological target: Large neutral amino acids transporter small subunit 1 (Homo sapiens) (UniProt Q01650); assay: Inhibition of SLC7A5 in CpG-A-stimulated human plasmacytoid dendritic cells at 5 to 10 uM assessed as decrease in IFN-alpha production; type: cell-based; details: Plasmacytoid dendritic cell, dose 5-10 µM
[28] = system: Plasmacytoid dendritic cell; assay: Inhibition of SLC7A5/SLC3A2 in IL-3 and CpG-A-stimulated human plasmacytoid dendritic cells at 1 to 2 uM assessed as decrease in TNF production in presence of 100 uM sulfasalazine; type: cell-based; details: dose 1-2 µM
[29] = system: Plasmacytoid dendritic cell; assay: Inhibition of SLC7A5/SLC3A2 in IL-3 and CpG-A-stimulated human plasmacytoid dendritic cells at 1 to 2 uM assessed as decrease in IFN-alpha production in presence of 100 uM sulfasalazine; type: cell-based; details: dose 1-2 µM
[30] = biological target: Large neutral amino acids transporter small subunit 1 (Homo sapiens) (UniProt Q01650); assay: Inhibition of SLC7A5 in CpG-A-stimulated human plasmacytoid dendritic cells at 5 to 10 uM assessed as decrease in pS6 levels; type: cell-based; details: Plasmacytoid dendritic cell, dose 5-10 µM

Sequence of Large neutral amino acids transporter small subunit 1 (Homo sapiens) (Q01650 whole entry): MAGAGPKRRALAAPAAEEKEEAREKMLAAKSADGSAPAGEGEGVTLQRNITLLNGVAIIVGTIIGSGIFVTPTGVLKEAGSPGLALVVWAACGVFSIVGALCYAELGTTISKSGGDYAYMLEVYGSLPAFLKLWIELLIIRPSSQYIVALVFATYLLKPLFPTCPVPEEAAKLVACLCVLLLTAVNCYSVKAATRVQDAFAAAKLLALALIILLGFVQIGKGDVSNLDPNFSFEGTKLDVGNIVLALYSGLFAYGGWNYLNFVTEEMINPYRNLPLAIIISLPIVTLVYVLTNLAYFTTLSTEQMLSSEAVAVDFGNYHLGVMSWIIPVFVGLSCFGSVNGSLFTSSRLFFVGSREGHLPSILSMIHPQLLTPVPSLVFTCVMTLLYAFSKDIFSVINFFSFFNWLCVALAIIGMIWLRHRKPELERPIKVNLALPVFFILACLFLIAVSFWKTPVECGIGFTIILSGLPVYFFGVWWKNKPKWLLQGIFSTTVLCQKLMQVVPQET
Sequence of Tyrosine-protein kinase JAK2 (Homo sapiens) (O60674 whole entry): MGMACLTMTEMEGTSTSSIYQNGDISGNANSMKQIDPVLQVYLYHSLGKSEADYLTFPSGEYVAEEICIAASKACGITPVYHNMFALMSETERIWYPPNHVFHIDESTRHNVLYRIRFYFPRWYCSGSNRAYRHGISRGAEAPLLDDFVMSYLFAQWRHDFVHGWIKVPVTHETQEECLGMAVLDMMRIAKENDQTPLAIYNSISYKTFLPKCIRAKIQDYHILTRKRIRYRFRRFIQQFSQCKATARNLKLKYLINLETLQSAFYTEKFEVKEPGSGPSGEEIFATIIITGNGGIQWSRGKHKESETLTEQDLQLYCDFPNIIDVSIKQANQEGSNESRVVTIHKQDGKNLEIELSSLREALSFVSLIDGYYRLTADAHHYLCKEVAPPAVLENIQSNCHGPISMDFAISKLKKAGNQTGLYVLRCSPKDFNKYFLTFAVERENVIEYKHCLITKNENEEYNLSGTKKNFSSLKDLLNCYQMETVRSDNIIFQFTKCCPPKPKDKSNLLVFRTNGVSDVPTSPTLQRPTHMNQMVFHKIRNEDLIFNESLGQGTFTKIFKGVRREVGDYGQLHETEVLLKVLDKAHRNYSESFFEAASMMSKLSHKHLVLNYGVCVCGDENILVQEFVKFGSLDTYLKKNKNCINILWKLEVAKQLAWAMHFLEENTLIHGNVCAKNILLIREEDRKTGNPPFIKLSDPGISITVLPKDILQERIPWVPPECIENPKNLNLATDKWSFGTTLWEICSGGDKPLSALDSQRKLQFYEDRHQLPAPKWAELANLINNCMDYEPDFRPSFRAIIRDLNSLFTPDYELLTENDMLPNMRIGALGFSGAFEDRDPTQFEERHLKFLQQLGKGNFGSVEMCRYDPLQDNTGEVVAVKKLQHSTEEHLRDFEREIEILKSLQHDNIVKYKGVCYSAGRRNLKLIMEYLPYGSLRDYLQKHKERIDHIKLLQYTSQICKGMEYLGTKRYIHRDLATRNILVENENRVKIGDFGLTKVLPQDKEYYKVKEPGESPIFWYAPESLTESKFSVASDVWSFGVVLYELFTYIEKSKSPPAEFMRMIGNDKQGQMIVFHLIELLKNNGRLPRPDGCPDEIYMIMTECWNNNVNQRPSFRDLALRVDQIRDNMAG

- inhibition [1]: Active
- inhibition [2]: Active
SMILES: CN(Cc1cnc2nc(N)nc(N)c2n1)c1ccc(C(=O)N[C@@H](CCC(=O)O)C(=O)O)cc1

- inhibition [3]: Active
- inhibition [4]: Active
- inhibition [5]: Active
- inhibition [6]: Active
- inhibition [7]: Active
- inhibition [8]: Active
- inhibition [9]: Active
- inhibition [10]: Active
- inhibition [11]: Active
- inhibition [12]: Active
- inhibition [13]: Active
- inhibition [14]: Active
- inhibition [15]: Active
- inhibition [16]: Active
- inhibition [17]: Active
- inhibition [18]: Active
- inhibition [19]: Active
- inhibition [20]: Active
- inhibition [21]: Active
- inhibition [22]: Active
- inhibition [23]: Active
- inhibition [24]: Active
SMILES: O=C(O)c1cc(/N=N/c2ccc(S(=O)(=O)Nc3ccccn3)cc2)ccc1O

- inhibition [25]: Active
- inhibition [26]: Active
- inhibition [27]: Active
- inhibition [30]: Active
SMILES: Nc1cc(COc2c(Cl)cc(C[C@H](N)C(=O)O)cc2Cl)c2oc(-c3ccccc3)nc2c1
- inhibition [28]: Active
- inhibition [29]: Active
